# Data: patent US10975070B2, “Ghrelin receptor agonist for treatment of cachexia” (RaQualia Pharma Inc., priority 2010, dated 2021)
# What was measured:
# [1] = test system: tumor-bearing mice prepared using a murine colon cancer cell line, CT26; test: Inhibitory effect on weight loss of tumor-bearing mice (CT26 colon cancer transplant); type: in vivo, BALB/c mice
# Source text: Inhibitory Effect on Weight Loss of Tumor-Bearing Mice
# Tumor-bearing mice prepared using a murine colon cancer cell line, colon 26, are known to closely reproduce the symptoms of cancer cachexia (Cancer Research, 50, 4528-4532 (1990)). In this experiment, using tumor-bearing mice prepared using a murine colon cancer cell line, CT26, that was established in the same method as that for producing the murine colon cancer cell line, colon 26, (The Journal of Immunology, 154, 4685-4692 (1995)), Compound A of the present invention was evaluated for effects on the body weights of said mice. That is, CT26 colon cancer cells (5×10^6) were subcutaneously transplanted in the flank of BALB/c mice at 7 weeks of age. The transplanted mice were divided into two groups, and once every day from the following day of the transplantation, water for injection was orally administered to the control group, whereas Compound A was orally administered at a dose of 75 mg/kg to the compound administration group. The administered volume was […]. Five and ten days after the transplantation, the tumor size (major axis and minor axis) in each mouse was measured, and the tumor volume was calculated from the following formula: (major axis)×(minor axis)^2/2. In addition, the body weight of each mouse was measured daily after the transplantation. The tumor volume 5 and 10 days after the transplantation of the CT26 murine colon cancer cells, and the body weight 10 days after the transplantation are shown in Table 1. Data are expressed as the mean±standard error.
# [2] = test system: rats with transplanted cancer tissue (sarcoma cells induced by methylcholanthrene); test: Inhibitory effect on weight loss of rats with transplanted cancer (methylcholanthrene-induced sarcoma); type: in vivo; settings: once a day for 5 to 14 days from 6-7 days after transplantation, dose-dependent, result in words
# Source text: Inhibitory Effect on Weight Loss of Rats with Transplanted Cancer
# The effect of Compound A was examined using this model. Sarcoma cells induced by methylcholanthrene were subcutaneously injected into the abdomen of rats. The rats were reared in a normal environment for about eight days and in this way animals used to provide cancer were produced. An amount of 0.2 to 0.3 g of fresh cancer tissue obtained from the animals used to provide cancer was subcutaneously transplanted into the abdomen of rats under anesthesia. From 6 days to 7 days after the transplantation of the cancer, Compound A was administered once a day for 5 days to 14 days, and the body weight was daily measured.
# An experiment was conducted on Compound B in the same manner as described above.
# [3] = CT26 tumor-bearing BALB/c mice, 75 mg/kg orally once daily from the day after transplantation, mean ± standard error
smiles,measurement,setting,value
"CN1N=C2CCN(C(=O)[C@@H](COCc3ccccc3)NC(=O)C(C)(C)N)C[C@@]2(Cc2ccccc2)C1=O [Compound A, 2-amino-N-[2-(3a-(R)-benzyl-2-methyl-3-oxo-2,3,3a,4,6,7-hexahydro-pyrazolo[4,3-c]pyridin-5-yl)-1-(R)-benzyloxymethyl-2-oxo-ethyl]-isobutyramide]",Body weight 10 days after transplantation,[1]; [3],22.3 ± 0.2 g
same,Tumor volume 5 days after transplantation,[1]; [3],137 ± 8 mm^3
same,Tumor volume 10 days after transplantation,"[1]; CT26 tumor-bearing BALB/c mice, 75 mg/kg orally once daily from the day after transplantation, mean ± standard error, 75 mg/kg",291±25 mm^3
same,Effect on body weight 10 days after transplantation in comparison with the control group,"[1]; CT26 tumor-bearing mice, 75 mg/kg orally, critical ratio of 0.1% or lower, result in words",significantly increased the body weight
same,Effect on tumor volume in comparison with the control group,"[1]; CT26 tumor-bearing mice, 75 mg/kg orally, result in words",not capable of reducing the tumor volume
same,Progression of the weight loss in tumor-bearing animals,[2],significantly inhibited the progression of the weight loss
"CC(C)(N)C(=O)N[C@H](COCc1ccc(F)cc1F)C(=O)N1CCC2=NN(CC(F)(F)F)C(=O)[C@]2(Cc2ccccn2)C1 [Compound B, 2-amino-N-[1-(R)-(2,4-difluoro-benzyloxymethyl)-2-oxo-2-(3-oxo-3a-(R)-pyridin-2-ylmethyl-2-(2,2,2-trifluoro-ethyl)-2,3,3a,4,6,7-hexahydro-pyrazolo[4,3-c]pyridin-5-yl)-ethyl]-2-methyl-propionamide]",Progression of the weight loss in tumor-bearing animals,[2],significantly inhibited the progression of the weight loss
